Assay results reported in PubChem BioAssay (NCI).
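1) Cells in 96-well plates. 2) Compound, 48 h, 5 concentrations. 3) Linear interpolation between surrounding doses. 4) Unreached endpoint = highest concentration. TGI marks complete inhibition of growth.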

Tests used:
Assay in all cases: DTP human tumour cell line panel, 48 h
HL-60(TB) leukemia = system: HL-60(TB) leukemia
T-47D breast = system: T-47D breast
MDA-MB-231 breast = system: MDA-MB-231 breast
KM12 colon = system: KM12 colon
OVCAR-4 ovarian = system: OVCAR-4 ovarian
SK-MEL-5 melanoma = system: SK-MEL-5 melanoma
UO-31 renal = system: UO-31 renal
SK-MEL-2 melanoma = system: SK-MEL-2 melanoma
SR leukemia = system: SR leukemia
SF-268 CNS = system: SF-268 CNS
HCC-2998 colon = system: HCC-2998 colon
HOP-92 NSCLC = system: HOP-92 NSCLC
SW-620 colon = system: SW-620 colon
A498 renal = system: A498 renal
NCI-H522 lung = system: NCI-H522 lung
A549 NSCLC = system: A549 NSCLC
IGROV1 ovarian = system: IGROV1 ovarian
HT29 colon = system: HT29 colon
CCRF-CEM leukemia = system: CCRF-CEM leukemia
NCI/ADR-RES ovarian = system: NCI/ADR-RES ovarian
NCI-H23 lung = system: NCI-H23 lung
BT-549 breast = system: BT-549 breast
SNB-75 CNS = system: SNB-75 CNS
OVCAR-5 ovarian = system: OVCAR-5 ovarian
SN12C renal = system: SN12C renal
MOLT-4 leukemia = system: MOLT-4 leukemia
M14 melanoma = system: M14 melanoma
HS 578T breast = system: HS 578T breast
HCT-15 colon = system: HCT-15 colon
SNB-19 CNS = system: SNB-19 CNS
MDA-MB-435 = system: MDA-MB-435
SK-OV-3 ovarian = system: SK-OV-3 ovarian
TK-10 renal = system: TK-10 renal
OVCAR-8 ovarian = system: OVCAR-8 ovarian
LOX IMVI melanoma = system: LOX IMVI melanoma
RXF 393 renal = system: RXF 393 renal
COLO 205 colon = system: COLO 205 colon
786-0 renal = system: 786-0 renal
SK-MEL-28 melanoma = system: SK-MEL-28 melanoma
PC-3 prostate = system: PC-3 prostate
CAKI-1 renal = system: CAKI-1 renal
SF-295 CNS = system: SF-295 CNS
UACC-257 melanoma = system: UACC-257 melanoma
U251 CNS = system: U251 CNS
ACHN renal = system: ACHN renal
UACC-62 melanoma = system: UACC-62 melanoma
OVCAR-3 ovarian = system: OVCAR-3 ovarian
HCT-116 colon = system: HCT-116 colon
DU-145 prostate = system: DU-145 prostate
MALME-3M melanoma = system: MALME-3M melanoma
SF-539 CNS = system: SF-539 CNS
RPMI-8226 leukemia = system: RPMI-8226 leukemia
HOP-62 NSCLC = system: HOP-62 NSCLC
EKVX NSCLC = system: EKVX NSCLC
MCF7 breast = system: MCF7 breast
NCI-H226 lung = system: NCI-H226 lung
NCI-H460 lung = system: NCI-H460 lung
K-562 leukemia = system: K-562 leukemia

Molecule `Cc1ccccc1N1C(N)=C(C#N)C(C#N)(C#N)C1c1ccccc1` (stereo not given) has a TGI (HL-60(TB) leukemia) of 44.2 µM, a TGI (T-47D breast) of 31 µM and a TGI (MDA-MB-231 breast) of 30.8 µM. The TGI (KM12 colon) was 32.6 µM, the TGI (OVCAR-4 ovarian) was 40.9 µM and the TGI (SK-MEL-5 melanoma) was 30.1 µM. The TGI (UO-31 renal) was 31.2 µM, the TGI (SK-MEL-2 melanoma) was 55.3 µM and the TGI (SR leukemia) was 60.4 µM. The TGI (SF-268 CNS) was 45.7 µM, the TGI (HCC-2998 colon) was 32.4 µM and the TGI (HOP-92 NSCLC) was 35.9 µM. It also gave a TGI (SW-620 colon) of 31.7 µM, a TGI (A498 renal) of 33.7 µM and a TGI (NCI-H522 lung) of 32.1 µM. For the same molecule, the TGI (A549 NSCLC) was 62.7 µM, the TGI (IGROV1 ovarian) was 33.9 µM and the TGI (HT29 colon) was 34.2 µM. For the same molecule, the TGI (CCRF-CEM leukemia) was 36.7 µM, the TGI (NCI/ADR-RES ovarian) was 42.2 µM and the TGI (NCI-H23 lung) was 38.6 µM. It also gave a TGI (BT-549 breast) of 28.8 µM, a TGI (SNB-75 CNS) of 46 µM and a TGI (OVCAR-5 ovarian) of 41.5 µM. For the same molecule, the TGI (SN12C renal) was 59 µM, the TGI (MOLT-4 leukemia) was 39.3 µM and the TGI (M14 melanoma) was 45 µM. It also gave a TGI (HS 578T breast) of 58 µM, a TGI (HCT-15 colon) of 35.9 µM and a TGI (SNB-19 CNS) of 41.2 µM. For the same molecule, the TGI (MDA-MB-435) was 35.4 µM, the TGI (SK-OV-3 ovarian) was 86.6 µM and the TGI (TK-10 renal) was 28.4 µM. The TGI (OVCAR-8 ovarian) was 38.4 µM, the TGI (LOX IMVI melanoma) was 32.7 µM and the TGI (RXF 393 renal) was 33.9 µM. The TGI (COLO 205 colon) was 33.4 µM, the TGI (786-0 renal) was 32.3 µM and the TGI (SK-MEL-28 melanoma) was 36.5 µM. It also gave a TGI (PC-3 prostate) of 51 µM, a TGI (CAKI-1 renal) greater than 100 µM and a TGI (SF-295 CNS) of 68.9 µM. The TGI (UACC-257 melanoma) was 32 µM, the TGI (U251 CNS) was 31.9 µM and the TGI (ACHN renal) was 35.1 µM. It also gave a TGI (UACC-62 melanoma) of 37.7 µM, a TGI (OVCAR-3 ovarian) of 35.6 µM and a TGI (HCT-116 colon) of 33.6 µM. The TGI (DU-145 prostate) was 30.8 µM, the TGI (MALME-3M melanoma) was 32.6 µM and the TGI (SF-539 CNS) was 37.9 µM. For the same molecule, the TGI (RPMI-8226 leukemia) was 45.2 µM, the TGI (HOP-62 NSCLC) was 42.5 µM and the TGI (EKVX NSCLC) was 42.8 µM. For the same molecule, the TGI (MCF7 breast) was 42.6 µM and the TGI (NCI-H226 lung) was 38.8 µM.

Molecule `N#Cc1c(N)c2c(c(-c3ccccc3)c1-c1ccccc1)C(=O)N(NC(=S)Nc1ccccc1)C2=O` has a TGI (HL-60(TB) leukemia) greater than 100 µM, a TGI (T-47D breast) greater than 100 µM and a TGI (MDA-MB-231 breast) greater than 100 µM. For the same molecule, the TGI (KM12 colon) was greater than 100 µM, the TGI (OVCAR-4 ovarian) was greater than 100 µM and the TGI (SK-MEL-5 melanoma) was greater than 100 µM. For the same molecule, the TGI (UO-31 renal) was greater than 100 µM, the TGI (NCI-H460 lung) was greater than 100 µM and the TGI (SK-MEL-2 melanoma) was greater than 100 µM. It also gave a TGI (SR leukemia) greater than 100 µM, a TGI (SF-268 CNS) greater than 100 µM and a TGI (HCC-2998 colon) greater than 100 µM. For the same molecule, the TGI (HOP-92 NSCLC) was greater than 100 µM, the TGI (SW-620 colon) was greater than 100 µM and the TGI (K-562 leukemia) was greater than 100 µM. It also gave a TGI (A498 renal) greater than 100 µM, a TGI (NCI-H522 lung) greater than 100 µM and a TGI (A549 NSCLC) greater than 100 µM. It also gave a TGI (IGROV1 ovarian) greater than 100 µM, a TGI (CCRF-CEM leukemia) greater than 100 µM and a TGI (NCI/ADR-RES ovarian) greater than 100 µM. The TGI (BT-549 breast) was greater than 100 µM, the TGI (SNB-75 CNS) was greater than 100 µM and the TGI (OVCAR-5 ovarian) was greater than 100 µM. It also gave a TGI (SN12C renal) greater than 100 µM, a TGI (MOLT-4 leukemia) greater than 100 µM and a TGI (M14 melanoma) greater than 100 µM. It also gave a TGI (HS 578T breast) greater than 100 µM, a TGI (HCT-15 colon) greater than 100 µM and a TGI (SNB-19 CNS) greater than 100 µM. The TGI (MDA-MB-435) was greater than 100 µM, the TGI (TK-10 renal) was greater than 100 µM and the TGI (OVCAR-8 ovarian) was greater than 100 µM. It also gave a TGI (LOX IMVI melanoma) greater than 100 µM, a TGI (RXF 393 renal) of 93.8 µM and a TGI (COLO 205 colon) greater than 100 µM. It also gave a TGI (786-0 renal) greater than 100 µM, a TGI (SK-MEL-28 melanoma) greater than 100 µM and a TGI (PC-3 prostate) greater than 100 µM. For the same molecule, the TGI (CAKI-1 renal) was greater than 100 µM, the TGI (SF-295 CNS) was greater than 100 µM and the TGI (UACC-257 melanoma) was greater than 100 µM. It also gave a TGI (U251 CNS) greater than 100 µM, a TGI (ACHN renal) greater than 100 µM and a TGI (UACC-62 melanoma) greater than 100 µM. For the same molecule, the TGI (OVCAR-3 ovarian) was greater than 100 µM, the TGI (HCT-116 colon) was greater than 100 µM and the TGI (DU-145 prostate) was greater than 100 µM. For the same molecule, the TGI (MALME-3M melanoma) was greater than 100 µM, the TGI (SF-539 CNS) was greater than 100 µM and the TGI (RPMI-8226 leukemia) was greater than 100 µM. The TGI (EKVX NSCLC) was greater than 100 µM, the TGI (MCF7 breast) was greater than 100 µM and the TGI (NCI-H226 lung) was greater than 100 µM.
